# Experimental data from patent US10172879B2, “Nanocomplexes for co-delivering a drug and siRNA and uses thereof” (D.R.NANO CO., LTD, priority 2015, dated 2019).
# d = 2'-deoxy (DNA)
# Test: Serum stability assay (50% serum, 37° C., gel electrophoresis)
# Assay type: in vitro ADME, bovine
# Conditions: 50% serum media at 37° C., 0-24 h; HMplex N/P=4
# Experimental: In vitro cytotoxicity studies of HMplexes were performed against normal cells (MRC-5 and NIH-3T3) and cancer cells (MDA-MB-231) using the colorimetric MTT assay. Cells were treated with HMplexes at various concentrations for 4 h and then incubated in a serum-free medium for another 44 h after washing twice with cold PBS (pH 7.4). After washing with PBS, the cells were treated with MTT reagents and the absorbance at 540 nm was measured with a microplate reader (Spectra Max 340, Molecular Devices, Sunnyvale, Calif., USA). The complex stability of HMplexes was evaluated by a heparin polyanion competition assay and a serum stability assay. For the heparin polyanion competition assay, HMplexes containing 1 μg siRNA were incubated with varying amounts of heparin (0-200 μg) for 30 min at room temperature and then subjected to 2% agarose gel electrophoresis. The decomplexed siRNA was detected with SYBR Gold staining. For serum stability studies, HMplexes or naked siRNA were incubated in 50% FBS/PBS (pH 7.4) at 37° C. for predetermined time periods (0-24 h). Aliquots from each sample were analyzed by 2% agarose gel electrophoresis and visualized with SYBR Gold.
substance,measurement,value
"free siRNA: Custom Bcl-2 siRNA (sense Seq ID No. 1-dTdT; antisense Seq ID No. 2-dTdT), uncomplexed (sense GUACAUCCAUUAUAAGCUG; antisense CAGCUUAUAAUGGAUGUAC; RNA, 3' dTdT, backbone not given here)",degradation of siRNA in serum,completely disappeared at 24 h
